Laboratory results from patent US20250281451A1, “COMPOSITIONS AND METHODS FOR MODULATING SLEEP AND USES THEREOF” (Brightseed, Inc., priority 2022, published 2025).
“Also recorded” adds a separate entry of the source.

Tests used:
[1] = molecular target: T1, Orx2 (Homo sapiens, UniProt O43614); test: Orx2 antagonist screening, chemiluminescent cell assay with Orexin B EC80; format: cell-based; settings: for % Agonism Orx2 at Relative IC50: absolute percent agonism at the μM concentration of the relative OR2 IC50; for IC50: antagonist mode against Orexin B EC80, read-out: Relative IC50 of Orx2; for IC50 Dilution of Orx2 (fold dilution): concentration of the fraction of the plant source, in fold dilution, needed to achieve IC50 of OR2
T1 construct: DiscoverX
T1 sequence (O43614 1-444): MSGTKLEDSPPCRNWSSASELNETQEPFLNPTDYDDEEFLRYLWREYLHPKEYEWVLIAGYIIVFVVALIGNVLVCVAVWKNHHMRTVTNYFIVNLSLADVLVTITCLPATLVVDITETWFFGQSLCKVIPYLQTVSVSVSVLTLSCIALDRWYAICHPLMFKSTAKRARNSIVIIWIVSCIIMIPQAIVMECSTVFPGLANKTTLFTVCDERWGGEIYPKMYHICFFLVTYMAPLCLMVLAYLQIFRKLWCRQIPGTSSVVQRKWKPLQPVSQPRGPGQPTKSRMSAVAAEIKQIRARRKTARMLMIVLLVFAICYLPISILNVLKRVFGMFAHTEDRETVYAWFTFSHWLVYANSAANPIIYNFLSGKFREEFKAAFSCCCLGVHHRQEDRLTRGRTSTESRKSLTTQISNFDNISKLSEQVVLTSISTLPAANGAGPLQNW
Method: For this example, the following protocol was used: 1.) seed cells in 20 μL Cell Plating Reagent; 2.) incubate cells overnight at 37° C. and 5% CO2; 3.) treat cells with 2.5 μL 10× antagonist prepared in Compound Dilution Buffer (For OR2 screening, 2.5 μL of 1:100 natural product sample in DiscoverX cell plating reagent. Control antagonist, Seltorexant, 10× stock was prepared at 1500 nM); 4.) incubate for 30 minutes at 37° C. and 5% CO2; 5.) treat cells with 2.5 μL 10× agonist prepared in Compound Dilution Buffer (For OR2 screening, 2.5 μL of 10× Orexin B EC80, 252.7 nM); 6.) incubate for 90 minutes at 37° C. and 5% CO2; 7.) add 12.5 μL Working Detection Solution; 8.) incubate for 1 hour at room temperature in the dark; and 9.) read chemiluminescent signal.
(§1) The plants described herein were tested to determine the concentration, in μM, to achieve the relative IC50 of OR2 receptor, the absolute percent agonism achieved at the μM concentration of the relative OR2 IC50, the percentage receptor activity at the concentration, in μM, needed to achieve IC50 in OR2, the percentage cell viability, measured by XTT assay, at the IC50 μM concentration, the concentration of the fraction, in fold dilution, needed to achieve IC50 of OR2, and the percentage receptor activity at the concentration of the fraction, in fold dilution, needed to achieve IC50 of OR2.

[2] = molecular target: T2, Orx1 (Homo sapiens, UniProt O43613); test: % agonism on Orx1 at the OR2 IC50 concentration; format: cell-based; settings: at the μM concentration needed to achieve IC50 in OR2
T2 sequence (O43613 1-425): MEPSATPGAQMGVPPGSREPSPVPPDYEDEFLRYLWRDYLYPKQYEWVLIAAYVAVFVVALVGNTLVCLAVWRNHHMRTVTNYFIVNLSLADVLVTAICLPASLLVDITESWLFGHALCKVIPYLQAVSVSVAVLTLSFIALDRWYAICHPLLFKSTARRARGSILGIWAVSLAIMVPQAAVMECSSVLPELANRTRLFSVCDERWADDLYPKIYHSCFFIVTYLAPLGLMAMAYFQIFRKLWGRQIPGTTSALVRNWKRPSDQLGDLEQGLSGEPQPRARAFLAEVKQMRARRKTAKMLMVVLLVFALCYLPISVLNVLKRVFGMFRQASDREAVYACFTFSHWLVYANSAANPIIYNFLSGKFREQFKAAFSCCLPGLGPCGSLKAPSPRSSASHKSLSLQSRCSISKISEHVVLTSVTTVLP
Method: For this example, the following protocol was used: 1.) seed cells in 20 μL Cell Plating Reagent; 2.) incubate cells overnight at 37° C. and 5% CO2; 3.) treat cells with 2.5 μL 10× antagonist prepared in Compound Dilution Buffer (For OR2 screening, 2.5 μL of 1:100 natural product sample in DiscoverX cell plating reagent.
as §1

[3] = system: cells; test: cell viability, XTT assay; format: cell-based; settings: at the IC50 μM concentration of the compound
Method: as §1

[4] = system: male Sprague-Dawley rat; test: in vivo tolerability, dose escalation, adverse effect observation; settings: for 15 min effects (adverse effects) / 30 min effects (adverse effects) / 60 min effects (adverse effects): n=3 rats, (x/3) animals affected
Method: In this example, the in vivo tolerability of Compounds 26, 21, 29, and 13 was assessed.
Naïve rats (male Sprague-Dawley rat) were acclimatized to the procedure room in their home cages up to 7 days following arrival to the test facility, with food and water available ad libitum. On the day of experiment, animals were acclimatized to the experimental room for at least one hour prior to the beginning of any experiment. All animals were tail marked, weighed and randomly assigned to treatment groups. The animals (n=3 per dose) were treated with either Compounds 26, 21, 29, and 13 (10 mL/kg, p.o.). For each compound a maximum of 4 doses were tested using a dose escalation procedure starting from 30 mg/kg. If this initial dose is well-tolerated, the dosage is increased to 100 mg/kg. If the 30 mg/kg dose is not tolerated, the dose is reduced to 15 mg/kg. Following the dose escalation procedure, if the 100 mg/kg dose is well-tolerated, the dose is escalated to 315 mg/kg. If it is not tolerated, the dose is decreased to 60 mg/kg. The pattern continues with the next decision point: if 315 mg/kg is well-tolerated, the dose is increased to the maximum of 500 mg/kg. If 315 mg/kg is not tolerated, the dose is decreased to 200 mg/kg.
The compounds would be considered not tolerated if three or more adverse effects (or any severe adverse effect) occurred at specific dose during the entire period of 60 mins. […] Mild—slight decrease in activity, responsive when provoked. Moderate—decrease in activity, less responsive when provoked.

Structure (SMILES) | % Agonism Orx2 at Relative IC50 [1] [%] | IC50 [1] [µM] | IC50 Dilution of Orx2 (fold dilution) [1] [fold dilution] | % Agonism on Orx1 at OR2 IC50 [2] [%] | % Cell viability at IC50 [3] [%] | further results
COc1c(O)cc2oc(-c3ccc(O)cc3)c(OC)c(=O)c2c1O [Compound 14, 5,7-dihydroxy-2-(4-hydroxyphenyl)-3,6-dimethoxychromen-4-one] | 50 | 89 | 3466.5 | 62.98 | 94.58 | –
C[C@@H]1O[C@@H](OC[C@H]2O[C@@H](Oc3c(-c4ccc(O)c(O)c4)oc4cc(O)cc(O)c4c3=O)[C@H](O)[C@@H](O)[C@@H]2O)[C@H](O)[C@H](O)[C@H]1O [Compound 15, 2-(3,4-dihydroxyphenyl)-5,7-dihydroxy-3-[(2S,3R,4S,5S,6R)-3,4,5-trihydroxy-6-[[(2R,3R,4R,5R,6S)-3,4,5-trihydroxy-6-methyloxan-2-yl]oxymethyl]oxan-2-yl]oxychromen-4-one] | 65 | 79.1 | 2283.9 | 67.71 | 103.46 | –
O=C(CCc1ccc(O)cc1)c1ccc(O)cc1OC1OC(CO)C(O)C(O)C1O (stereo not shown) [Compound 17, 3-(4-hydroxyphenyl)-1-[4-hydroxy-2-[3,4,5-trihydroxy-6-(hydroxymethyl)oxan-2-yl]oxyphenyl]propan-1-one] | 80 | 188 | 5786.9 | 100.52 | 89.87 | –
O=c1c(O)c(-c2ccc(O)c(O)c2)oc2cc(O)cc(O)c12 [Compound 29, 2-(3,4-dihydroxyphenyl)-3,5,7-trihydroxychromen-4-one] | – | – | – | – | – | 15 min effects (adverse effects) ([4]; 30 mg/kg p.o.): No adverse effects; 30 min effects (adverse effects) ([4]; 30 mg/kg p.o.): No adverse effects; 60 min effects (adverse effects) ([4]; 30 mg/kg p.o.): No adverse effects; 15 min effects (adverse effects) ([4]; 100 mg/kg p.o.): Reduced activity; 30 min effects (adverse effects) ([4]; 100 mg/kg p.o.): No adverse effects; 60 min effects (adverse effects) ([4]; 100 mg/kg p.o.): No adverse effects; 15 min effects (adverse effects) ([4]; 315 mg/kg p.o.): Reduced activity; 30 min effects (adverse effects) ([4]; 315 mg/kg p.o.): Reduced activity; also recorded: Pica (2/3); 60 min effects (adverse effects) ([4]; 315 mg/kg p.o.): Reduced activity (3/3); 15 min effects (adverse effects) ([4]; 500 mg/kg p.o.): Pica (1/3); 30 min effects (adverse effects) ([4]; 500 mg/kg p.o.): Pica (2/3); 60 min effects (adverse effects) ([4]; 500 mg/kg p.o.): No adverse effects; tolerability ([4]; all four doses (30, 100, 315 and 500 mg/kg) p.o., 60 min observation): well-tolerated

The next lines start with results.

% Agonism Orx2 at Relative IC50 [1] [%] | IC50 [1] [µM] | IC50 Dilution of Orx2 (fold dilution) [1] [fold dilution] | % Agonism on Orx1 at OR2 IC50 [2] [%] | Structure (SMILES) | % Cell viability at IC50 [3] [%] | further results
65 | 53.3 | 7039.1 | 64.4 | O=c1c(O)c(-c2ccc(O)cc2)oc2cc(O)cc(O)c12 [Compound 12, 3,5,7-trihydroxy-2-(4-hydroxyphenyl)chromen-4-one] | 80.39 | –
75 | 381 | 5786.9 | 77.95 | COc1ccc(C(=O)CCc2ccc(O)cc2)c(O)c1 [Compound 16, 1-(2-hydroxy-4-methoxyphenyl)-3-(4-hydroxyphenyl)propan-1-one] | 85.11 | –
80 | 319 | 5786.9 | 68.74 | O=C(CCc1ccc(O)cc1)c1ccc(OC2OC(CO)C(O)C(O)C2O)cc1O (stereo not shown) [Compound 19, 3-(4-hydroxyphenyl)-1-[2-hydroxy-4-[3,4,5-trihydroxy-6-(hydroxymethyl)oxan-2-yl]oxyphenyl]propan-1-one] | 86.12 | –
45 | 146 | – | – | O=C(O)[C@H]1O[C@@H](Oc2c(-c3ccc(O)cc3)oc3cc(O)cc(O)c3c2=O)[C@H](O)[C@@H](O)[C@@H]1O [Compound 20, (2S,3S,4S,5R,6S)-6-[5,7-dihydroxy-2-(4-hydroxyphenyl)-4-oxochromen-3-yl]oxy-3,4,5-trihydroxyoxane-2-carboxylic acid] | 83.58 | –
